Experimental data: patent US3932668A, “Composition for treating swine scour” (priority 1971, dated 1976)
≈ marks a conversion by molar mass, not a printed value. Entries after “also recorded” stand apart in the source; their conditions may differ. Structures can show the parent of a compound that is named as a salt.

Legend:
[1] = Comparative experiment: effect of kanamycin sulfate against scours of swine (control); type: in vivo; design: key to Severity of Conditions, 1st day / Severity of Conditions, 2nd day / Severity of Conditions, 3rd day / Severity of Conditions, 4th day / Severity of Conditions, 5th day: +++: watery feces; ++: muddy feces; +: soft feces; --: normal feces; details: individual swine (one table line each), single dosage 60-150 mg/Kg
From the text: Effect of Kanamycin Sulfate against Scours of […]

[2] = Growth (increased body weights) of starting chicks raised on mixed feed for 10 weeks; type: in vivo; details: for Weight Increase Index: non-added group = 100.0
From the text: An amount of 2,3,3-triiodo-allyl-methyl ether as shown in Table 3 was uniformly mixed into one ton of a poultry compound feed. The 2,3,3-triiodo-allyl-methyl ether had been premixed with 100 times its weight of defatted rice bran. Using this mixed feed, 20 starting chicks were raised for 10 weeks.

Escherichia coli 0-78 = assay: Antimicrobial spectrum, minimum inhibition concentration; type: cell-based; details: 078
Escherichia coli 0-139 = assay: as above; type: cell-based; details: 0139
Salmonella typhi O-901-W = assay: as above; type: cell-based; details: Salmonella enterica
[3] = test system: Cryptococcus neoformans 301; assay: as above; type: cell-based
Tricophyton asteroides = assay: as above; type: cell-based
[4] = Field clinical test to treat the scours of pigs; type: in vivo; design: key to Severity of Conditions, 4th day / Severity of Conditions, 5th day: +++: watery feces; ++: muddy feces; +: soft feces; --: normal feces
Experimental: In use, 2,3,3-triiodo-allyl-methyl ether in crystal form is formed into a fine powder, and either coated with gelatin to a content of about 10% of the ether powder or diluted 10-fold with lactose. It is used in an amount of about 10 mg or more per kilogram of the body weight of the swine in one dosage, and may be increased according to the case. Usually, it is administered twice on the first day, and thereafter, once a day for 3 to 4 days. By this method of treatment, the disease is generally cured in about 5 days.
2,3,3-triiodo-allyl-methyl ether was finely divided in a mortar, and then diluted 10-fold with lactose. A field clinical test was performed using this formulation to treat the scours of 41 pigs. The formulation was administered orally twice on the first day and once a day for the next 3 to 4 days. In this table, the symbols +++, ++, + and -- have the following meanings: […]

Escherichia coli 0-83 = assay: Antimicrobial spectrum, minimum inhibition concentration; type: cell-based; details: 083
[5] = test system: Aspergillus fumigatus Saito; assay: as above; type: cell-based
mice = assay: Toxicity (LD50) against mice; type: in vivo; details: intraperitoneal administration
From the text: (§1) As is well known, LD50, or the median lethal dose, is the dose which is fatal to 50% of the test animals, and the larger the LD50 is, the lower the toxicity of the test material is.

[6] = Toxicity (LD50) against mice; type: in vivo; details: mouse, in vivo
From the text: as §1

[7] = test system: Staphylococcus aureus 209-p; assay: Antimicrobial spectrum, minimum inhibition concentration; type: cell-based
[8] = Absorption, residue and cross resistance as agent for swine scours
[9] = test system: Streptococcus haemolyticus cook; assay: Antimicrobial spectrum, minimum inhibition concentration; type: cell-based
Escherichia coli 0-16 = assay: as above; type: cell-based; details: 016
Escherichia coli 0-142 = assay: as above; type: cell-based; details: 0142
Escherichia coli 0-20 = assay: as above; type: cell-based; details: 020
Candida albicans Totuka = assay: as above; type: cell-based
Escherichia coli 0-135 = assay: as above; type: cell-based; details: 0135
[10] = Absorption, residue and cross resistance as feed additive (poultry)
El-tor vibrio = assay: Antimicrobial spectrum, minimum inhibition concentration; type: cell-based
[11] = chicks, comparative antibiotic, 20 g
[12] = chicks, inferred from body weight at great quantities
[13] = individual pigs (one table line each), oral, single dosage 35-200 mg/Kg, diluted 10-fold with lactose

NC[C@H]1O[C@H](O[C@H]2[C@H](O)[C@@H](O[C@H]3O[C@H](CO)[C@@H](O)[C@H](N)[C@H]3O)[C@H](N)C[C@@H]2N)[C@H](O)[C@@H](O)[C@@H]1O [Kanamycin Sulfate]
Evaluation [1]: Cured; also recorded: Deaths
Severity of Conditions, 1st day [1]: ++ and + and +++
Severity of Conditions, 2nd day [1]: ++ and + and -- and +++
Severity of Conditions, 3rd day [1]: + and ++ and --
Severity of Conditions, 4th day [1]: -- and + and ++
Severity of Conditions, 5th day [1]: -- and + and ++

CC1(C)S[C@@H]2[C@H](NC(=O)Cc3ccccc3)C(=O)N2[C@H]1C(=O)O [Procaine Pencillin G]
Body weight, 2nd week [2, 11]: 127.3
Body weight, 4th week [2, 11]: 374.6
Body weight, 6th week [2, 11]: 664.2
Body weight, 8th week [2, 11]: 1012.9
Body weight, 10th week [2, 11]: 1324.0
Weight Increase Index [2, 11]: 109.5

COCC(I)=C(I)I [2,3,3-triiodo-allyl-methyl ether, methyl-2,3,3-triiodoallylether]
MIC (Escherichia coli 0-78): 3.12 µg/mL (≈ 6.94 µM)
MIC (Escherichia coli 0-139): 12.5 µg/mL (≈ 27.8 µM)
MIC (Salmonella typhi O-901-W): 3.12 µg/mL (≈ 6.94 µM)
MIC [3]: 0.78 µg/mL (≈ 1.73 µM)
MIC (Tricophyton asteroides): 1.56 µg/mL (≈ 3.47 µM)
Body weight after 10 weeks compared with the group not given the additive ([2]; all groups fed the additive): showed an increase in body weight after 10 weeks
Body weight, 2nd week ([2]; chicks, 1 g/ton of feed): 120.4
Body weight, 4th week ([2]; chicks, 1 g/ton of feed): 357.4
Body weight, 6th week ([2]; chicks, 1 g/ton of feed): 682.4
Body weight, 8th week ([2]; chicks, 1 g/ton of feed): 1084.4
Body weight, 10th week ([2]; chicks, 1 g/ton of feed): 1329.7
Weight Increase Index ([2]; chicks, 1 g/ton of feed): 109.9
Body weight, 2nd week ([2]; chicks, 5 g/ton of feed): 125.9
Body weight, 4th week ([2]; chicks, 5 g/ton of feed): 362.1
Body weight, 6th week ([2]; chicks, 5 g/ton of feed): 706.2
Body weight, 8th week ([2]; chicks, 5 g/ton of feed): 1099.3
Body weight, 10th week ([2]; chicks, 5 g/ton of feed): 1408.4
Weight Increase Index ([2]; chicks, 5 g/ton of feed): 116.4
Body weight, 2nd week ([2]; chicks, 10 g/ton of feed): 147.6
Body weight, 4th week ([2]; chicks, 10 g/ton of feed): 388.0
Body weight, 6th week ([2]; chicks, 10 g/ton of feed): 764.0
Body weight, 8th week ([2]; chicks, 10 g/ton of feed): 1150.7
Body weight, 10th week ([2]; chicks, 10 g/ton of feed): 1512.1
Weight Increase Index ([2]; chicks, 10 g/ton of feed): 125.0
Body weight, 2nd week ([2]; chicks, 20 g/ton of feed): 120.4
Body weight, 4th week ([2]; chicks, 20 g/ton of feed): 350.2
Body weight, 6th week ([2]; chicks, 20 g/ton of feed): 647.3
Body weight, 8th week ([2]; chicks, 20 g/ton of feed): 990.7
Body weight, 10th week ([2]; chicks, 20 g/ton of feed): 1303.1
Weight Increase Index ([2]; chicks, 20 g/ton of feed): 109.7
Body weight, 2nd week ([2]; chicks, 50 g/ton of feed): 124.3
Body weight, 4th week ([2]; chicks, 50 g/ton of feed): 359.4
Body weight, 6th week ([2]; chicks, 50 g/ton of feed): 671.3
Body weight, 8th week ([2]; chicks, 50 g/ton of feed): 1030.5
Body weight, 10th week ([2]; chicks, 50 g/ton of feed): 1382.2
Weight Increase Index ([2]; chicks, 50 g/ton of feed): 114.3
Body weight, 2nd week ([2]; chicks, 100 g/ton of feed): 128.2
Body weight, 4th week ([2]; chicks, 100 g/ton of feed): 349.8
Body weight, 6th week ([2]; chicks, 100 g/ton of feed): 663.1
Body weight, 8th week ([2]; chicks, 100 g/ton of feed): 946.7
Body weight, 10th week ([2]; chicks, 100 g/ton of feed): 1223.7
Weight Increase Index ([2]; chicks, 100 g/ton of feed): 101.2
Body weight, 2nd week ([2]; chicks, 200 g/ton of feed): 106.5
Body weight, 4th week ([2]; chicks, 200 g/ton of feed): 343.2
Body weight, 6th week ([2]; chicks, 200 g/ton of feed): 686.3
Body weight, 8th week ([2]; chicks, 200 g/ton of feed): 1039.6
Body weight, 10th week ([2]; chicks, 200 g/ton of feed): 1298.3
Weight Increase Index ([2]; chicks, 200 g/ton of feed): 107.3
Effect of great quantities on body weight ([2]; chicks, addition of great quantities): did not cause a decrease in body weight
Absorption by the digestive tract [2, 12]: little absorbed
Side-effects [2, 12]: does not have side-effects
Effect against the diarrhea of swine ([4]; Table 4, comparison with kanamycin sulfate): superior effect
Severity of Conditions, 4th day [4, 13]: -- and + and ++
Severity of Conditions, 5th day [4, 13]: --
Time in which the disease is generally cured ([4]; swine scours, about 10 mg or more per kg, twice first day, then once a day for 3 to 4 days): about 5 days
MIC (Escherichia coli 0-83): 12.5 µg/mL (≈ 27.8 µM)
MIC [5]: 3.12 µg/mL (≈ 6.94 µM)
LD50 (mice): 50 to 100 mg/kg
LD50 ([6]; ip, intraperitoneal administration): 50 to 100 mg/kg
LD50 ([6]; oral administration): > 1000 mg/kg
selectivity ratio ([6]; times or more as great, read-out: LD50 in oral administration relative to that in intraperitoneal administration): 10 to 20
MIC [7]: 6.25 µg/mL (≈ 13.9 µM)
Cross resistance ([8]; agent for swine scours): does not have cross resistance
Absorption by the digestive tract of swine ([8]; swine): hardly absorbed
Build-up of residue ([8]; swine): does not cause a build-up of residue
MIC [9]: 12.5 µg/mL (≈ 27.8 µM)
MIC (Escherichia coli 0-16): 6.25 µg/mL (≈ 13.9 µM)
MIC (Escherichia coli 0-142): 6.25 µg/mL (≈ 13.9 µM)
MIC (Escherichia coli 0-20): 0.78 µg/mL (≈ 1.73 µM)
MIC (Candida albicans Totuka): 3.12 µg/mL (≈ 6.94 µM)
MIC (Escherichia coli 0-135): 3.12 µg/mL (≈ 6.94 µM)
Cross resistance ([10]; feed additive for poultry): does not have cross resistance
Absorption by the digestive tract of poultry ([10]; poultry): hardly absorbed
Residue build-up ([10]; poultry): free from residue build-up
MIC (El-tor vibrio): 3.12 µg/mL (≈ 6.94 µM)
